Legend:
[1] = format: physicochemical
Experimental: Clear solutions without precipitates are considered soluble. Unless indicated otherwise herein, the term “solubility” refers to “equilibrium solubility.”
Upon heating to 80° C. for 15 minutes, rebaudioside D has an equilibrium solubility of 0.08% for at least four days at room temperature.

[2] = sensory evaluation; cited from earlier work

equilibrium solubility [1] | instantaneous solubility [1] | Compound | sweetness relative to sucrose [2]
0.08% | less than 0.08% | C=C1C[C@@]23CC[C@H]4[C@@](C)(CCC[C@@]4(C)C(=O)O[C@@H]4O[C@H](CO)[C@@H](O)[C@H](O)[C@H]4O[C@@H]4O[C@H](CO)[C@@H](O)[C@H](O)[C@H]4O)[C@@H]2CC[C@]1(O[C@@H]1O[C@H](CO)[C@@H](O)[C@H](O[C@@H]2O[C@H](CO)[C@@H](O)[C@H](O)[C@H]2O)[C@H]1O[C@@H]1O[C@H](CO)[C@@H](O)[C@H](O)[C@H]1O)C3 [Rebaudioside D] | 200-220 times sweeter than sucrose
about 0.2% | about 0.13% | C=C1C[C@@]23CC[C@H]4[C@@](C)(CCC[C@@]4(C)C(=O)O[C@@H]4O[C@H](CO)[C@@H](O)[C@H](O[C@@H]5O[C@H](CO)[C@@H](O)[C@H](O)[C@H]5O)[C@H]4O[C@@H]4O[C@H](CO)[C@@H](O)[C@H](O)[C@H]4O)[C@@H]2CC[C@]1(O[C@@H]1O[C@H](CO)[C@@H](O)[C@H](O[C@@H]2O[C@H](CO)[C@@H](O)[C@H](O)[C@H]2O)[C@H]1O[C@@H]1O[C@H](CO)[C@@H](O)[C@H](O)[C@H]1O)C3 [Rebaudioside M] | 

— US12662505B2, “Steviol glycoside solubility enhancers” (CARGILL, INCORPORATED, priority 2019, dated 2026)
